Results on twelve compounds are retold here after patent EP1100483B1, “GLUCOCORTICOID-SELECTIVE ANTI-INFLAMMATORY AGENTS” (Abbott Laboratories, priority 1998, dated 2000).

The test concerns the target T1, human glucocorticoid receptor-α [GRX] isoform (Homo sapiens, UniProt P04150).
T1 construct: purchased Ligand Pharmaceuticals (San Diego, CA); host or cells: insect SF21 cells (baculovirus)
T1 sequence (P04150 1-777): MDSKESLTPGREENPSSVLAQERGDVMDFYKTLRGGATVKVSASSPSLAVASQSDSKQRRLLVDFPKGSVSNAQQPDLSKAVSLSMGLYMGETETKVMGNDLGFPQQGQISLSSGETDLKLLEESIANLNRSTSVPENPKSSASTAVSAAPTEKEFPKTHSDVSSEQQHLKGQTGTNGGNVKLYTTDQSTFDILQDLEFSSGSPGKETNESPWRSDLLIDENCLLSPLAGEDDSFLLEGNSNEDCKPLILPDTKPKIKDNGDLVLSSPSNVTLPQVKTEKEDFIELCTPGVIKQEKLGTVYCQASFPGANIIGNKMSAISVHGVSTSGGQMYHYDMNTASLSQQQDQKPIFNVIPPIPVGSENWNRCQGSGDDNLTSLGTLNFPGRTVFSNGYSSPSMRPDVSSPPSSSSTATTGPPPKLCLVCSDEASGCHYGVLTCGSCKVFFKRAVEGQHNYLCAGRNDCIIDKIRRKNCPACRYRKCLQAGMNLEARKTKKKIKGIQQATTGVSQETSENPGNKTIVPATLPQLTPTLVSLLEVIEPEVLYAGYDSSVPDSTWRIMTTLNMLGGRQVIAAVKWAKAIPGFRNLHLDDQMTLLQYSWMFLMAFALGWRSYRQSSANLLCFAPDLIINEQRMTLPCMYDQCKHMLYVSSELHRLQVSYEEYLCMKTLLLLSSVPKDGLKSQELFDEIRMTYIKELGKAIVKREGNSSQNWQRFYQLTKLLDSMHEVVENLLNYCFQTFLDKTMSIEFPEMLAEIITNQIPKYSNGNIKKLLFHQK
Nature of the test: glucocorticoid receptor (GR) cytosol binding assay, [3H]-dexamethasone competition. The text has this: For glucocorticoid receptor (OR) cytosol binding assays, the procedure described in Anal. […] Briefly, cytosol preparations of human glucocorticoid receptor-α [GRX] isoform and human progesterone receptor-A [PRA] isoform were obtained from Ligand Pharmaceuticals (San Diego, CA). Both receptor cDNAs were cloned into baculovirus expression vectors and expressed in insect SF21 cells. […] Glass fiber type C multiscreen MAFC NOB plates were from Millipore ( Burlington, MA). Hydroxyapatide Bio-Gel HTP gel was obtained from Bio-Rad Laboratories (Hercules. CA). Tris(hydroxymethyl)aminomethane (Tris), ethylenediaminetetraacetic acid (EDTA), glycerol, dithiothreitol (DTT) and sodium moylybdate were obtained from Sigma Chemicals (St. Louis, MO). Microscint-20 scintillation fluid was obtained from Packard Instrument (Meriden, CT). […] GRX and PRA binding reactions were performed in Millipore Multiscreen plates. […] Specific binding was defined as the difference between binding of [^3H]Dex in the absence and in the presence of 1µM unlabeled Dex. After an overnight incubation, 50 µL of hydroxyapatite (25 % weight/volume) slurry were added to each well and plates were incubated for 10 min at 4 °C in a plate shaker. Plates were suctioned with a Millipore vacuum manifold and each well was rinsed with 300 µL of ice-cold binding buffer. A 250 µL aliquot of Packard Microscint-20 was added to each well and the wells were shaken at room temperature for 20 minutes. The amount of radioactivity was determined with a Packard TopCount plate reader.

[1] abbreviates: [3H]-Dex ~0.9 nM, GRX cytosol, 4 °C overnight, Cheng-Prusoff, read-out: Ki (nM) GR.

Where two headings read alike, the source gives them in different places.

`CN(C)c1ccc(C(Oc2ccc(Cl)cc2)c2cc([N+](=O)[O-])ccc2Cl)cc1` (stereo not drawn) [Example 53, 4-chlorophenyl-[(4'-dimethylaminophenyl)-(2-chloro-5-nitrophenyl)methyl] ether]: the inhibition constant Ki (commonly a measure of affinity in units of concentration, obtained from inhibition or displacement) under setting [1] was 788 nM. The same measure, in the same setting: for `CN(C)c1ccc(C(Nc2ccccc2)c2cc([N+](=O)[O-])ccc2Cl)cc1` (stereo not drawn) [Example 55, phenyl-[(4'-dimethylaminophenyl)-(2-chloro-5-nitrophenyl)methyl] amine] the value was 1680 nM; for `CN(C)c1ccc(C(c2ccccc2)c2cc([N+](=O)[O-])ccc2Cl)cc1` (stereo not drawn) [Example 56, 4'-dimethylamino-2-chloro-5-nitrotriphenylmethane], 1030 nM; for `CN(C)c1ccc(C(O)(c2ccccc2)c2ccccc2Cl)cc1` (stereo not drawn) [Example 57, 4'-dimethylamino-2-chlorotriphenylmethanol], 2030 nM.

With `CN(C)c1ccc(C(c2ccccc2)c2ccccc2Cl)cc1` (stereo not drawn) [Example 58, 4'-dimethylamino-2-chlorotriphenylmethane], under setting [1], the Ki was determined as 4300 nM. Consider `CN(C)c1ccc(C(c2ccc(N(C)C)cc2)c2cc(N)ccc2Cl)cc1` [Example 59, 4',4" bis(dimethylamino)-5-amino-2-chlorotriphenylmethane], for which, under setting [1], the Ki turned out to be 4600 nM.

`CN(C)c1ccc(C(c2ccc(N(C)C)cc2)c2cc(NC(=O)c3ccc([N+](=O)[O-])cc3)ccc2Cl)cc1` [Example 60, 4',4" bis(dimethylamino)-2-chloro-5-(4-nitrobenzamido)triphenylmethane] had a Ki of 4650 nM. On to `CN(C)c1ccc(C(c2ccc(N(C)C)cc2)c2cc(NC(=O)C3CC3)ccc2Cl)cc1` [Example 62, 4',4" bis(dimethylamino)-2-chloro-5-(cyclopropylcarbamido)-triphenylmethane], for which the Ki under setting [1] came to 4600 nM. Still for that read-out and setting: the result for `CN(C)c1ccc(C(c2ccc(N(C)C)cc2)c2cc(N(S(C)(=O)=O)S(C)(=O)=O)ccc2Cl)cc1` [Example 63, 4',4" bis(dimethylamino)-2-chloro-5-(dimethylsulphonimido)triphenylmethane] reads 4600 nM. `COC(=O)Nc1ccc(Cl)c(C(c2ccc(N(C)C)cc2)c2ccc(N(C)C)cc2)c1` [Example 64, 4',4" bis(dimethylamino)-2-chloro-5-(methoxycarbonylamino)triphenylmethane]: the Ki under setting [1] worked out at 5270 nM. Same read-out and setting: for `CN(C)c1ccc(C(c2ccc(N(C)C)cc2)c2cc(N=Cc3ccco3)ccc2Cl)cc1` [Example 65, 4',4" bis(dimethylamino)-2-chloro-5-(2-furanylmethylimino)triphenylmethane] the value was 1790 nM. The same measure, in the same setting: the result for `CN(C)c1ccc(C(c2ccc(N(C)C)cc2)c2cc(NCc3ccco3)ccc2Cl)cc1` [Example 66, 4',4" bis(dimethylamino)-2-chloro-5-(2-furanylmethylamino)triphenylmethane] reads 757 nM.
